Test results as given in patent US9393308B2, “Micelle structure of nano preparation for diagnosis or treatment of cancer disease and preparation method thereof” (KOREA ADVANCED INSTITUTE OF SCIENCE AND TECHNOLOGY, priority 2013, dated 2016).

Experiments:
[1] = system: U251MG, which is a human malignant glioma cell; test: Cytotoxicity when light is not irradiated (WST-1, dark room condition); format: cell-based; conditions: 10 μM or less, 2 h treatment, 24 h additional culture
Method: In order to evaluate cytotoxicity, U251MG, which is a human malignant glioma cell, was obtained from American Type Culture Collection (ATCC, Manassas, Va., USA). The obtained cell was cultured in a Dulbecco's Modified Eagle's Medium including the nutrient mixture F-12, 10% fetal bovine serum, an antibiotic (penicillin (100 I.U./mL), and streptomycin (100 μg/mL)), and the 0.1 mM MEM non-essential amino acid solution under conditions of 37° C. and 5% carbon dioxide. 5×10^4 cell/well of the cultured cells were dispensed into a 24-well plate, and DMEM/F12 medium (1 mL) was injected four times for each sample. The medium was removed 24 hours after culture, and media respectively including nanopreparations prepared in Example 1 and Comparative Examples 2 and 3 in concentrations of 1.0, 2.5, 5.0, and 10 μM were injected. In this case, the volume of the nanopreparations included in the injected medium was set not to exceed 1.0% of the total volume of the medium. […] Then, absorbance of the culture medium was measured at the wavelength of 450 nm by using an absorbance microplate reader. In this case, the aforementioned whole procedure was performed at a dark room condition, and cell viability was derived from the measured normalized absorbance.

[2] = system: U251MG, which is a human malignant glioma cell; test: Light induced cytotoxicity by light irradiation (590 to 605 nm, 0.1 J/cm^2); format: cell-based; conditions: light 590 to 605 nm, 5 mW/cm^2, 0.1 J/cm^2, 12 hours culture
Method: 1×10^4 cell/well of U251MG, which is a human malignant glioma cell, were dispensed into a 96-well plate, and a DMEM/F12 medium (100 μL) was injected four times for each sample. 24 hours after culture, the medium was replaced with media respectively including the nanopreparations prepared in Example 1 and Comparative Examples 2 and 3 (sample treatment group) and a medium without the nanopreparation (non-treatment group). The samples were cultured at the dark room condition for 2 hours, washed with phosphate buffered saline (PBS). Then, media was replaced again with media without the nanopreparation. Subsequently, 5 mW/cm^2 of lighting power of light (590 to 605 nm) was irradiated through a light irradiation system (LIS) so that total energy applied to each cell is adjusted to 0.1 J/cm^2 to perform photodynamic diagnosis (photodynamic therapy). Each cell was cultured for 12 hours at the light irradiation condition. The cultured cell was subjected to the same method as Experimental Example 3 to measure light-cytotoxicity. Light induced cytotoxicity and light induced cytotoxicity efficiency were derived from the measured values by using Equations 1 and 2.

**Q.** Which results are given for Cc1cc(O)c2c(=O)c3c(O)cc(O)c4c5c(O)cc(O)c6c(=O)c7c(O)cc(C)c8c1c2c(c34)c(c78)c65 [Comparative Example 2, Hypericin]?
**A.** toxicity to cells when light is not irradiated [1]: do not have toxicity to cells; light toxicity (light induced cytotoxicity efficiency) [2]: 1.00±0.04 % mg/A.U. mL
